Here are results for 15 molecules from US20120302569A1, “PHENYL-THIAZOLYL INHIBITORS OF PRO-MATRIX METALLOPROTEINASE ACTIVATION” (priority 2011, published 2012).

Assay [1] has as its target T1, full-length proMMP9(1-707) (SEQ ID NO:1) (Homo sapiens, UniProt P14780, R574P).
T1 construct: made in house; host or cells: HEK293 (proMMP9, secreted); E. coli (MMP3)
Put plainly: proMMP9/MMP3 P126 Activation Assay. In kind it is biochemical. The following applies: proMMP9(1-707) from HEK293 cells activated by catalytic MMP3. On the procedure: proMMP9/MMP3 P126 Activation Assay
The reaction volume was 50 μL. […] Reactivity of residual MMP3 towards P-126 substrate was minimal under these conditions.

Assay [2] deals with T2, proMMP9(20-445;ΔFnII) (SEQ ID NO:6) (Homo sapiens, UniProt P14780, DEL216-390).
T2 construct: start methionine (N); made in house; host or cells: E. coli BL21(DE3) RIL
T2 sequence (P14780 with tags, fused parts or gaps DEL216-390): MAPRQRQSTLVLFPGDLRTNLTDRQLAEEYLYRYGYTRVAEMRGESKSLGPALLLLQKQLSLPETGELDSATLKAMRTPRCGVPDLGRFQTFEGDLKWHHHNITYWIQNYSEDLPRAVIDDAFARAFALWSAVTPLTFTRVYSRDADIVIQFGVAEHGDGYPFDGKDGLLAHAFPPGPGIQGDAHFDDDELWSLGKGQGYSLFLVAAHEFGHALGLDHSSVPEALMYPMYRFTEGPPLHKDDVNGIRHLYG
Kind of assay: ThermoFluor with proMMP9(20-445;ΔFnII). As to conditions: read-out: proMMP9(20-445; ΔFnII) (SEQ ID NO: 6) binding. On the procedure: (§1) The ThermoFluor® (TF) assay is a 384-well plate-based binding assay that measures thermal stability of proteins (Biomol Screen 2001, 6, 429-40; Biochemistry 2005, 44, 5258-66). The experiments were carried out using instruments available from Johnson & Johnson Pharmaceutical Research & Development, LLC. TF dye used in all experiments was […] (1,8-ANS) (Invitrogen: A-47).
(§2) Compounds were arranged in a pre-dispensed plate (Greiner Bio-one: 781280), wherein compounds were serially diluted in 100% DMSO across 11 columns within a series. Columns 12 and 24 were used as DMSO reference and contained no compound. For multiple compound concentration-response experiments, the compound aliquots (50 nL) were robotically predispensed directly into black 384-well polypropylene PCR microplates (Abgene: TF-0384/k) using a Cartesian Hummingbird liquid handler (DigiLab, Holliston, Mass.). Following compound dispense, protein and dye solutions were added to achieve the final assay volume of 3 μL. The assay solutions were overlayed with 1 μL of silicone oil (Fluka, type DC 200: 85411) to prevent evaporation.
(§3) Assay plates were robotically loaded onto a thermostatically controlled PCR-type thermal block and then heated from 40 to 90° C. at a ramp-rate of 1° C./min for all experiments. Fluorescence was measured by continuous illumination with UV light (Hamamatsu LC6) supplied via fiber optics and filtered through a band-pass filter (380-400 nm; >6 OD cutoff). Fluorescence emission of the entire 384-well plate was detected by measuring light intensity using a CCD camera (Sensys, Roper Scientific) filtered to detect 500±25 nm, resulting in simultaneous and independent readings of all 384 wells. A single image with 20-sec exposure time was collected at each temperature, and the sum of the pixel intensity in a given area of the assay plate was recorded vs temperature and fit to standard equations to yield the Tm (J Biomol Screen 2001, 6, 429-40).
(§4) Thermodynamic parameters necessary for fitting compound binding for each proMMP were estimated by differential scanning calorimetry (DSC) and from ThermoFluor® data. The heat capacity of unfolding for each protein was estimated from the molecular weight and from ThermoFluor® dosing data.
ThermoFluor® with proMMP9(20-445;ΔFnII) (SEQ ID NO:6)
The protein sample preparations included a desalting buffer exchange step via a PD-10 gravity column (GE Healthcare). The desalting buffer exchange was performed prior to diluting the protein to the final assay concentration of 2.8 μM proMMP9(20-445;ΔFnII) (SEQ ID NO:6). The concentration of proMMP9(20-445;ΔFnII) (SEQ ID NO:6) was determined spectrophotometrically based on a calculated extinction coefficient of ε280=39880 M^−1cm^−1, a calculated molecular weight of 28.2 kDa, and calculated pI of 5.5. ThermoFluor® reference conditions were define as follows: 80 μg/mL (2.8 μM) proMMP9(20-445;ΔFnII) (SEQ ID NO:6), 50 μM 1,8-ANS, pH 7.0 Buffer (50 mM HEPES pH 7.0, 100 mM NaCl, 0.001% Tween-20, 2.5 mM MgCl2, 300 μM CaCl2). The thermodynamic parameters for proMMP9(20-445;ΔFnII) (SEQ ID NO:6) are as follows: Tm (° C.)=72 (+/−0.1), ΔUH(Tm) (cal mol^−1)=160000(+/−5000), ΔUS(Tm) (cal mol^−1 K^−1)=434, ΔUCp (cal mol^−1 K^−1)=2400.
(In general: Differential scanning fluorimetry follows unfolding on heating by fluorescence.)

The target in assay [3] is T3, proMMP9(67-444;ΔFnII) (SEQ ID NO:5) (Homo sapiens, UniProt P14780, DEL216-390).
T3 construct: start methionine (N); made in house; host or cells: E. coli BL21(DE3) RIL
T3 sequence (P14780 with tags, fused parts or gaps DEL216-390): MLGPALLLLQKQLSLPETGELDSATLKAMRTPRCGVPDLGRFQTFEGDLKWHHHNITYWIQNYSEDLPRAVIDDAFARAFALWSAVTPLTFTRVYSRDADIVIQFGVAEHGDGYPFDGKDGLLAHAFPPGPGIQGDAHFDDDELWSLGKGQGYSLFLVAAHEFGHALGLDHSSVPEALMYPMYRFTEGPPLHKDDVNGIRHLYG
Kind of assay: ThermoFluor with proMMP9(67-444;ΔFnII). The following applies: read-out: proMMP9(67-444; ΔFnII) (SEQ ID NO: 5) binding. On the procedure: as §1, §2, §3, §4
ThermoFluor® with proMMP9(67-444;ΔFnII) (SEQ ID NO:5)
The protein sample preparations had to include a desalting buffer exchange step via a PD-10 gravity column (GE Healthcare). The desalting buffer exchange was performed prior to diluting the protein to the final assay concentration of 3.5 μM proMMP9(67-444;ΔFnII) (SEQ ID NO:5). The concentration of proMMP9(67-444;ΔFnII) (SEQ ID NO:5) was determined spectrophotometrically based on a calculated extinction coefficient of ε280=33900 M^−1cm^−1, a calculated molecular weight of 22.6 kDa, and calculated pI of 5.20. ThermoFluor® reference conditions were defined as follows: 80 μg/mL (3.5 μM) proMMP9(67-444;ΔFnII) (SEQ ID NO:5), 50 μM 1,8-ANS, pH 7.0 Buffer (50 mM HEPES pH 7.0, 100 mM NaCl, 0.001% Tween-20, 2.5 mM MgCl2, 300 μM CaCl2). The thermodynamic parameters for proMMP9(67-444;ΔFnII) (SEQ ID NO:5) are as follows: Tm (° C.)=63 (+/−0.1), ΔUH(Tm) (cal mol^−1)=105000(+/−5000), ΔUS(Tm) (cal mol^−1 K^−1)=450, […].

Structures are written as SMILES. Where a name gives a salt, the structure may show the parent alone.

T1 sequence (P14780 20-707 R574P): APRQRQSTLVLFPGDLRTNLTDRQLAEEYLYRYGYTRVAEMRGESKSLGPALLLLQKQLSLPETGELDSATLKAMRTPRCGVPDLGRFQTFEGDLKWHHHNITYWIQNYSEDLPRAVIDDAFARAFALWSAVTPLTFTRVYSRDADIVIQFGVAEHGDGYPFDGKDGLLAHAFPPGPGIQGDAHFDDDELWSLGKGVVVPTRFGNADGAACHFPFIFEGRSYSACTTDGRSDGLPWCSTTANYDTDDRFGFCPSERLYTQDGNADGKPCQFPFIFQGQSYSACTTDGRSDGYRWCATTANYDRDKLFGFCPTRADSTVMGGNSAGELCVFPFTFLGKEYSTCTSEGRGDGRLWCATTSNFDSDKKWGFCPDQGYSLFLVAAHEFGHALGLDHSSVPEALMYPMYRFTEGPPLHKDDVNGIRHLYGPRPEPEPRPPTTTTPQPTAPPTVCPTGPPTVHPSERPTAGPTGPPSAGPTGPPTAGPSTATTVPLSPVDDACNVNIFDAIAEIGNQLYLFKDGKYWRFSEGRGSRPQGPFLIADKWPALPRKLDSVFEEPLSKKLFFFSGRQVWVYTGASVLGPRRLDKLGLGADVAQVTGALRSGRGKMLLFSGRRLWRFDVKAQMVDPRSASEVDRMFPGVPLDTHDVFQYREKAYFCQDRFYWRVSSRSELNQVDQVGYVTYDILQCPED

The IC50 is the concentration at which inhibition is half-maximal. Consider `CC(C)Oc1ccc(C(N)=O)cc1Nc1nc(-c2ccc(CN3CC[C@@H](F)C3)cc2)cs1` [Example 52, (R)-3-((4-(4-((3-fluoropyrrolidin-1-yl)methyl)phenyl)thiazol-2-yl)amino)-4-isopropoxybenzamide.TFA], for which the IC50 in assay [1] is 110 nM. For the same molecule, the Kd in assay [2] stood at 27 nM; in assay [3] it was 87 nM.

`NS(=O)(=O)c1ccc(OC(F)(F)F)c(Nc2nc(-c3ccc(OCCN4CCOCC4)cc3)cs2)c1` [Example 30, 3-((4-(4-(2-Morpholinoethoxy)phenyl)thiazol-2-yl)amino)-4-(trifluoromethoxy)benzenesulfonamide.TFA] returned an IC50 in assay [1] of 1100 nM. Further, the Kd was 1200 nM in assay [2] and 1300 nM in assay [3].

Regarding `NS(=O)(=O)c1cc2c(c(Nc3nc(-c4ccc(OCCN5CCC(F)CC5)cc4)cs3)c1)OCC2` [Example 38, 7-((4-(4-(2-(4-fluoropiperidin-1-yl)ethoxy)phenyl)thiazol-2-yl)amino)-2,3-dihydrobenzofuran-5-sulfonamide.TFA], the IC50 in assay [1] was above 20000 nM. Moreover, the Kd worked out at 2600 nM in assay [2] and 3000 nM in assay [3].

Molecule `CC(C)Oc1ccc(C(N)=O)cc1Nc1nc(-c2ccc(OCCN3CCOCC3)cc2)cs1` [Example 29, 4-Isopropoxy-3-((4-(4-(2-morpholinoethoxy)phenyl)thiazol-2-yl)amino)benzamide.TFA] displayed an IC50 in assay [1] of 150 nM. The Kd in assay [2] was 28 nM; in assay [3], 100 nM.

On to `CCOc1ccncc1Nc1nc(-c2ccc(OCCN3CCC(F)CC3)cc2)cs1` [Example 36, N-(4-ethoxypyridin-3-yl)-4-(4-(2-(4-fluoropiperidin-1-yl)ethoxy)phenyl)thiazol-2-amine.TFA], for which 92 nM corresponded to half-maximal inhibition in assay [1] (IC50). Besides, the Kd was determined as 1800 nM in assay [2] and 96 nM in assay [3].

`CC(C)Oc1ccc(C(N)=O)cc1Nc1nc(-c2ccc(CN3CCOCC3)cc2)cs1` [Example 58, 4-isopropoxy-3-((4-(4-(morpholinomethyl)phenyl)thiazol-2-yl)amino)benzamide.TFA] showed an IC50 in assay [1] of 250 nM. The Kd in assay [2] turned out to be 56 nM; in assay [3] it was 210 nM.

On to `CC(C)Cc1ccc(C(N)=O)cc1Nc1nc(-c2ccc(OCCN3CCC(F)CC3)cc2)cs1` [Example 40, 3-((4-(4-(2-(4-fluoropiperidin-1-yl)ethoxy)phenyl)thiazol-2-yl)amino)-4-isobutylbenzamide.TFA], for which, in assay [1], 1300 nM corresponded to half-maximal inhibition (IC50). Further, the Kd in assay [2] was 190 nM; in assay [3], 660 nM.

Molecule `CC(C)Oc1ccc(S(N)(=O)=O)cc1Nc1nc(-c2ccc(OCCN3CCC(F)(F)CC3)cc2)cs1` [Example 31, 3-((4-(4-(2-(4,4-Difluoropiperidin-1-yl)ethoxy)phenyl)thiazol-2-yl)amino)-4-isopropoxybenzenesulfonamide.TFA] had an IC50 in assay [1] of 1100 nM. Further, the Kd in assay [2] came out at 75 nM; in assay [3], 150 nM.

Take `CC(C)Oc1ccc(S(N)(=O)=O)cc1Nc1nc(-c2ccc(C3CCN(C)CC3)cc2)cs1` [Example 25, 4-Isopropoxy-3-((4-(4-(1-methylpiperidin-4-yl)phenyl)thiazol-2-yl)amino)benzenesulfonamide.TFA]: in assay [1], 69 nM corresponded to half-maximal inhibition (IC50). In addition, the Kd is 27 nM in assay [2] and 30 nM in assay [3].

Turning to `CC(C)Oc1ccc(S(N)(=O)=O)cc1Nc1nc(-c2ccc(OCCN3CCC(F)CC3)cc2)cs1` [Example 34, 3-((4-(4-(2-(4-fluoropiperidin-1-yl)ethoxy)phenyl)thiazol-2-yl)amino)-4-isopropoxybenzenesulfonamide.TFA], the IC50 in assay [1] came to 120 nM. The Kd was 21 nM in assay [2] and 28 nM in assay [3].

Consider `COc1ccc(F)cc1Nc1nc(-c2ccc(CN3CC[C@@H](F)C3)cc2)cs1` [Example 61, (R)—N-(5-fluoro-2-methoxyphenyl)-4-(4-((3-fluoropyrrolidin-1-yl)methyl)phenyl)thiazol-2-amine.TFA], for which, in assay [1], the IC50 was 1500 nM. Also, the Kd in assay [2] was determined as 53000 nM; in assay [3] it was 5600 nM.

In assay [1], `CC(C)Oc1ccc(S(N)(=O)=O)cc1Nc1nc(-c2ccc(C3=CCN(C(C)C)CC3)cc2)cs1` [Example 15, 4-Isopropoxy-3-((4-(4-(1-isopropyl-1,2,3,6-tetrahydropyridin-4-yl)phenyl)thiazol-2-yl)amino)benzenesulfonamide.TFA] displayed an IC50 of 28 nM. In addition, the Kd in assay [2] came to 17 nM; in assay [3], 18 nM.

`NS(=O)(=O)c1ccc(OC(F)(F)F)c(Nc2nc(-c3ccc(OCCN4CCC(F)(F)CC4)cc3)cs2)c1` [Example 33, 3-((4-(4-(2-(4,4-difluoropiperidin-1-yl)ethoxy)phenyl)thiazol-2-yl)amino)-4-(trifluoromethoxy)benzenesulfonamide.TFA] returned an IC50 in assay [1] of 16000 nM. For the same molecule, the results for the Kd in assay [2] and in assay [3] were 1300 nM and 650 nM, respectively.

Molecule `CC(C)Oc1ccc(S(N)(=O)=O)cc1Nc1nc(-c2ccc(CN3CCN(C4CC4)CC3)cc2)cs1` [Example 51, 3-((4-(4-((4-cyclopropylpiperazin-1-yl)methyl)phenyl)thiazol-2-yl)amino)-4-isopropoxybenzenesulfonamide.TFA] gave an IC50 in assay [1] of 110 nM. Further, the Kd in assay [2] is 36 nM; in assay [3], 79 nM.

For `CCN1CCN(c2ccc(-c3csc(Nc4cc(C(N)=O)ccc4OC(C)C)n3)cc2)CC1` [Example 9, 3-((4-(4-(4-Ethylpiperazin-1-yl)phenyl)thiazol-2-yl)amino)-4-isopropoxybenzamide.TFA], the IC50 in assay [1] came to 89 nM. The Kd in assay [2] came to 34 nM; in assay [3], 94 nM.
